Here are results for nine compounds from US20230159445A1, “STAT INHIBITORY COMPOUNDS AND COMPOSITIONS” (JANPIX LIMITED, priority 2020, published 2023).

The assay relates to MV4-11 cells. Description: MV4-11 Cell Cytotoxicity Assay (CellTiter-Blue, 72 h). Type of assay: cell-based, human. Conditions: Homo sapiens, MV4-11; MV-4-11 cells. The procedure: In some embodiments, the potency of the STAT5 inhibitors are evaluated by an in vitro assay such as MV4-11 Cell Cytotoxicity Assay. […] 10,000 cells were plated per well in 96-well flat-bottom sterile culture plates with low-evaporation lids. After 24 h, inhibitors and a vehicle control (0.5% DMSO) were added and the cells were incubated for 72 h at 37° C. in 5% CO2. Inhibitors were examined in triplicate at a maximal concentration of 50 μM, followed by 1:2 dilutions in subsequent wells (25, 12.5, 6.25, 3.125, 1.5625, 0.78125, 0.390625, 0.195313 and 0.097656 μM). After 72 h, the wells were treated with CellTiter-Blue® (20 μL/well), and the plates were incubated using standard cell culture conditions for 1 hour. Fluorescence was measured at 560/590 nm.
In general, IC50 refers to the midpoint of a concentration-inhibition curve. Read a high IC50 as weaker potency in that assay. Compound `COc1cc(C(=O)O)ccc1N(Cc1cc(C2CC2)cc(C(C)(C)C)c1)C(=O)CN(Cc1ccc(F)nc1Cl)S(=O)(=O)c1c(F)c(F)c(F)c(F)c1F` [Compound 1096, 4-(N-(3-(tert-butyl)-5-cyclopropylbenzyl)-2-(N-((2-chloro-6-fluoropyridin-3-yl)methyl)-(2,3,4,5,6-pentafluorophenyl)sulfon-amido)acetamido)-3-methoxybenzoic acid] gave a half-maximal inhibitory concentration (IC50) of 0.01 to 316 nM.
The result for `CN(C)CCOc1cc(C(=O)O)ccc1N(Cc1cc(C2CC2)cc(C(C)(C)C)c1)C(=O)CN(Cc1ccccc1F)S(=O)(=O)c1c(F)c(F)c(F)c(F)c1F` [Compound 1101, 4-(N-(3-(tert-butyl)-5-cyclopropylbenzyl)-2-(N-(2-fluorobenzyl)-(2,3,4,5,6-pentafluoro-phenyl)sulfonamido)taceamido)-3-(2-(dimethylamino)ethoxy) benzoic acid] reads 3160 to 100000 nM; that for `CN(C)c1cc(C(=O)O)ccc1N(Cc1cc(C2CC2)cc(C(C)(C)C)c1)C(=O)CN(Cc1c(F)c(F)c(F)c(F)c1F)S(=O)(=O)c1c(F)c(F)c(F)c(F)c1F` [Compound 1106, 4-(N-(3-(tert-butyl)-5-cyclopropylbenzyl)-2-(N-((perfluorophenyl)methyl)-(2,3,4,5,6-pentafluorophenyl)sulfonamido)acetamido)-3-(dimethylamino)benzoic acid], 0.01 to 316 nM; that for `CN(C)c1cc(C(=O)O)c(F)cc1N(Cc1cc(C2CC2)cc(C(C)(C)C)c1)C(=O)CN(Cc1c(F)c(F)c(F)c(F)c1F)S(=O)(=O)c1c(F)c(F)c(F)c(F)c1F` [Compound 1107, 4-(N-(3-(tert-butyl)-5-cyclopropylbenzyl)-2-(N-((perfluorophenyl)methyl)-(2,3,4,5,6-pentafluoro-phenyl)sulfonamido)acetamido)-5-(dimethylamino)-2-fluorobenzoic acid], 0.01 to 316 nM.
The result for `CC(C)(C)c1cc(CN(C(=O)CN(Cc2ccccc2C(F)(F)F)S(=O)(=O)c2c(F)c(F)c(F)c(F)c2F)c2ccc(C(=O)O)cc2C2CC2)cc(C2CC2)c1` [Compound 1112, 4-(N-(3-(tert-butyl)-5-cyclopropylbenzyl)-2-(N-(2-(trifluoromethyl)benzyl)-(2,3,4,5,6-pentafluoro-phenyl)sulfonamido)acetamido)-3-cyclopropylbenzoic acid] reads 0.01 to 316 nM; that for `CN(C)c1cc(C(=O)O)c(F)cc1N(Cc1cc(C2CC2)cc(C(C)(C)C)c1)C(=O)CN(Cc1ccccc1C(F)(F)F)S(=O)(=O)c1c(F)c(F)c(F)c(F)c1F` [Compound 1113, 4-(N-(3-(tert-butyl)-5-cyclopropylbenzyl)-2-(N-(2-(trifluoromethyl)benzyl)-(2,3,4,5,6-pentafluoro-phenyl)sulfonamido)acetamido)-5-(dimethylamino)-2-fluorobenzoic acid], 316 to 1000 nM; that for `COc1cc(C(N)=O)ccc1N(Cc1cc(C2CC2)cc(C(C)(C)C)c1)C(=O)CN(Cc1ccccc1F)S(=O)(=O)c1c(F)c(F)c(F)c(F)c1F` [Compound 1114, 4-(N-(3-(tert-butyl)-5-cyclopropylbenzyl)-2-(N-(2-fluorobenzyl)-(2,3,4,5,6-pentafluoro-phenyl)sulfonamido)acetamido)-3-methoxybenzamide], 316 to 1000 nM.
On to `CN(C)c1ccc(C(=O)O)cc1N(Cc1cc(C2CC2)cc(C(C)(C)C)c1)C(=O)CN(Cc1ccccc1F)S(=O)(=O)c1c(F)c(F)c(F)c(F)c1F` [Compound 1120, 3-(N-(3-(tert-butyl)-5-cyclopropylbenzyl)-2-(N-(2-fluorobenzyl)-(2,3,4,5,6-pentafluoro-phenyl)sulfonamido)acetamido)-4-(dimethylamino) benzoic acid], for which the IC50 was in the range of 316 to 1000 nM.
For the compound `CN(C)c1cc(C(=O)O)ccc1N(Cc1cc(C2CC2)cc(C(C)(C)C)c1)C(=O)CN(Cc1c(F)cc(F)cc1F)S(=O)(=O)c1c(F)c(F)c(F)c(F)c1F` [Compound 1125, 4-(N-(3-(tert-butyl)-5 - cyclopropylbenzyl)-2-(N-(2,4,6-trifluorobenzyl)-(2,3,4,5,6-pentafluoro-phenyl)sulfonamido)acetamido)-3-(dimethylamino) benzoic acid], the IC50 is 316 to 1000 nM.
